Laboratory results as given in paper PMC4168026 (BioMed Research International, 2014).
Several values for one entry are separate records, joined by “and”; a condition that tells them apart may be missing. Equal entries are not always repeated.

Assays:
CA XIII [1] = biological target: T1, CA XIII (Homo sapiens, UniProt Q8N1Q1); assay: Fluorescent thermal shift assay (FTSA), CA XIII; type: binding; conditions: for shift of the melting temperature Tm, CA XIII: compound added to 200 μM, pH 7.0
T1 construct: five isoforms of human recombinant catalytic domains of carbonic anhydrases (CAs); made in house
T1 sequence (Q8N1Q1 4-261 limits assumed): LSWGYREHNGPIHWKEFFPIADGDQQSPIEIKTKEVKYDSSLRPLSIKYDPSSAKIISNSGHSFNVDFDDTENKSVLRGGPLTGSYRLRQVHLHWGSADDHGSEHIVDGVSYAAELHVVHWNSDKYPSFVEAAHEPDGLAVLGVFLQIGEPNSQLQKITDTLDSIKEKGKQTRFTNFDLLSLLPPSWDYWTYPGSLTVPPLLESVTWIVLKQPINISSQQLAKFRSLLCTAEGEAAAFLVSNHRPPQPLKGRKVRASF

CA II [2] = biological target: T2, CA II (Homo sapiens, UniProt P00918); assay: Fluorescent thermal shift assay (FTSA), CA II; type: binding; conditions: 37°C, pH 7.0, read-out: Dissociation constants Kd, CA II
T2 construct: five isoforms of human recombinant catalytic domains of carbonic anhydrases (CAs); made in house

CA XIII [3] = biological target: T1, CA XIII; assay: Isothermal titration calorimetry (ITC), CA XIII; type: binding
CA XII [4] = biological target: T3, CA XII (Homo sapiens, UniProt O43570); assay: Isothermal titration calorimetry (ITC), CA XII; type: binding
T3 construct: five isoforms of human recombinant catalytic domains of carbonic anhydrases (CAs); made in house
T3 sequence (O43570 30-289 limits assumed): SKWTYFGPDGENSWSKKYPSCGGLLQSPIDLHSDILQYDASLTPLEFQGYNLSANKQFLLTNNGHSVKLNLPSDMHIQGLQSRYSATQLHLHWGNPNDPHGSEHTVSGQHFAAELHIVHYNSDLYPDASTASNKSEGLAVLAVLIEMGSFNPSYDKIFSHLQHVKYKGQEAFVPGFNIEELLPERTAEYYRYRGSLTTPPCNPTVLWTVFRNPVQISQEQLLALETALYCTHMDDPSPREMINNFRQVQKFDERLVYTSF

CA II [5] = biological target: T2, CA II; assay: Isothermal titration calorimetry (ITC), CA II; type: binding
CA XII [6] = biological target: T3, CA XII; assay: Fluorescent thermal shift assay (FTSA), CA XII; type: binding
CA I [7] = biological target: T4, CA I (Homo sapiens, UniProt P00915); assay: Isothermal titration calorimetry (ITC), CA I; type: binding
T4 construct: five isoforms of human recombinant catalytic domains of carbonic anhydrases (CAs); made in house
T4 sequence (P00915 4-261 limits assumed): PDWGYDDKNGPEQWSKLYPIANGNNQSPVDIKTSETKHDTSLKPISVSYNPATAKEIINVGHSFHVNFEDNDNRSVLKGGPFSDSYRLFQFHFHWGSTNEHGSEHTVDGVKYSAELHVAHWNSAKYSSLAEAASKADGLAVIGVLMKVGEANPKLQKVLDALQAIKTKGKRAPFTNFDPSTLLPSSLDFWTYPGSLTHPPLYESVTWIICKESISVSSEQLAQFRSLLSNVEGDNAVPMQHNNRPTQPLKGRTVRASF

CA VII [8] = biological target: T5, CA VII (Homo sapiens, UniProt P43166); assay: Fluorescent thermal shift assay (FTSA), CA VII; type: binding; conditions: for Kd: FTSA
T5 construct: five isoforms of human recombinant catalytic domains of carbonic anhydrases (CAs); made in house
T5 sequence (P43166 5-262 limits assumed): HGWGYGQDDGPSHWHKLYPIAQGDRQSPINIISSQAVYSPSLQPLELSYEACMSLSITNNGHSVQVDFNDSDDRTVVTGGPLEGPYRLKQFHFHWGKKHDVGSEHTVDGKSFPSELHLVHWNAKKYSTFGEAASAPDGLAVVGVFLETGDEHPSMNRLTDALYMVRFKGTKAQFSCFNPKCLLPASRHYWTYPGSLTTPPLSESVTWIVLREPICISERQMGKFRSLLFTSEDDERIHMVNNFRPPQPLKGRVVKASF

CA I [9] = biological target: T4, CA I; assay: Fluorescent thermal shift assay (FTSA), CA I; type: binding; conditions: for Kd: FTSA; for energetic contribution (difference in ΔG of binding), CA I: against compound 2, from FTSA, pH 7.0, 37°C
CA VII [10] = biological target: T5, CA VII; assay: Isothermal titration calorimetry (ITC), CA VII; type: binding
CA VII [11] = conditions: read-out: affinity, CA VII; inhibition method, literature value ref 5; cited from earlier work
[12] = 37°C, pH 7.0, read-out: Dissociation constants Kd, CA XIII
[13] = 37°C, pH 7.0, read-out: Dissociation constants Kd, CA XII
[14] = 37°C, pH 7.0, read-out: Dissociation constants Kd, CA VII
[15] = 37°C, pH 7.0, read-out: Dissociation constants Kd, CA I
[16] = ITC, 37°C, pH 7.0, read-out: Dissociation constants Kd, CA XII
[17] = ITC, 37°C, pH 7.0, read-out: Dissociation constants Kd, CA II
[18] = ITC, 37°C, pH 7.0, read-out: Dissociation constants Kd, CA I

Question: What does the source list for `NS(=O)(=O)c1ccc2c(c1)S(=O)(=O)NC2=O` [Compound 2]?
Answer: Kd (CA XIII [1]; [12]): ~0.2 µM and 0.2 µM; Kd (CA II [2]): 0.4 µM; Kd (CA XIII [3]; [12]): 0.12 µM; Kd (CA XII [4]): 0.099 µM; Kd (CA II [5]): 0.29 µM; Kd (CA XII [6]; [13]): 0.22 µM; Kd (CA I [7]): 1.4 µM

Question: With `CC#CCN1C(=O)c2ccc(S(N)(=O)=O)cc2S1(=O)=O` [Compound 3] as the molecule, how does the Kd (CA XIII [1]; [12]) read?
Answer: 0.045 µM

Question: What about the “shift of the melting temperature Tm, CA XIII” value (CA XIII [1]) of the same molecule?
Answer: significant

Question: What about the Kd (CA II [2]) of the same molecule?
Answer: 0.02 µM

Question: What about the Kd (CA VII [8]; [14]) of the same molecule?
Answer: 0.11 µM

Question: What about the Kd (CA XIII [3]; [12]) of the same molecule?
Answer: 0.047 µM

Question: What about the Kd (CA I [9]; [15]) of the same molecule?
Answer: 0.018 µM

Question: What about the “energetic contribution (difference in ΔG of binding), CA I” value (CA I [9]) of the same molecule?
Answer: -3.47 kcal/mol

Question: What about the Kd (CA XII [4]; [16]) of the same molecule?
Answer: 0.25 µM

Question: What about the Kd (CA VII [10]; [14]) of the same molecule?
Answer: 0.16 µM

Question: And the Kd (CA II [5]; [17])?
Answer: 0.056 µM

Question: What about the Kd (CA XII [6]; [13]) of the same molecule?
Answer: 0.29 µM

Question: And the Kd (CA I [7]; [18])?
Answer: 0.028 µM

Question: Which Kd (CA XIII [1]; [12]) does the source give for `NS(=O)(=O)c1ccc2c(c1)S(=O)(=O)N(CCc1ccccc1)C2=O` [Compound 4] here?
Answer: 0.0067 µM

Question: And the “shift of the melting temperature Tm, CA XIII” value (CA XIII [1])?
Answer: significant

Question: What about the Kd (CA II [2]) of the same molecule?
Answer: 0.0025 µM

Question: And the Kd (CA VII [8]; [14])?
Answer: 0.0043 µM

Question: What about the Kd (CA XIII [3]; [12]) of the same molecule?
Answer: < 0.02 µM

Question: And the Kd (CA I [9]; read-out: affinity (Kd), CA I)?
Answer: 0.00033 µM

Question: And the “energetic contribution (difference in ΔG of binding), CA I” value (CA I [9])?
Answer: -5.93 kcal/mol

Question: What about the Kd (CA XII [4]; [16]) of the same molecule?
Answer: 0.04 µM

Question: And the Kd (CA VII [10]; [14])?
Answer: < 0.02 µM

Question: What about the Kd (CA II [5]; [17]) of the same molecule?
Answer: < 0.02 µM

Question: And the Kd (CA XII [6]; [13])?
Answer: 0.025 µM

Question: What about the Kd (CA I [7]; [18]) of the same molecule?
Answer: < 0.02 µM

Question: With `O=C1NS(=O)(=O)c2ccccc21` [Compound 1, saccharin, reference compound] as the molecule, how does the Kd (CA XIII [1]; [12]) read?
Answer: 2000 µM

Question: What about the Kd (CA XIII [1]; read-out: Kd, CA XIII) of the same molecule?
Answer: 2000 µM

Question: And the “affinity weaker than the literature value, CA VII” value (CA VII [8]; FTSA Kd against 10 nM of ref 5)?
Answer: 100,000 fold

Question: What about the Kd (CA VII [8]; read-out: Kd, CA VII) of the same molecule?
Answer: 1000 µM

Question: What about the Ki (CA VII [11]) of the same molecule?
Answer: 0.01 µM

Question: And the Kd (CA XIII [3]; [12])?
Answer: > 100 µM

Question: What about the Kd (CA XIII [3]; all tested CAs, read-out: Kd, CA XIII) of the same molecule?
Answer: > 100 µM

Question: What about the Kd (CA I [9]; [15]) of the same molecule?
Answer: > 10000 µM

Question: What about the Kd (CA I [9]; no shift up to 7.5 mM, read-out: Kd, CA I) of the same molecule?
Answer: > 10000 µM

Question: And the Kd (CA XII [4]; [16])?
Answer: > 100 µM

Question: And the Kd (CA XII [4]; ITC, all tested CAs, read-out: Kd, CA XII)?
Answer: > 100 µM

Question: What about the Kd (CA VII [10]; [14]) of the same molecule?
Answer: > 100 µM

Question: What about the Kd (CA VII [10]; all tested CAs, read-out: Kd, CA VII) of the same molecule?
Answer: > 100 µM

Question: What about the Kd (CA XII [6]; read-out: Kd, CA XII) of the same molecule?
Answer: 5900 µM

Question: And the Kd (CA I [7]; [18])?
Answer: > 100 µM

Question: And the Kd (CA I [7]; ITC, all tested CAs, read-out: Kd, CA I)?
Answer: > 100 µM
